Results as given in patent US20240051970A1, “COMPOUNDS AND COMPOSITIONS FOR TREATING CONDITIONS ASSOCIATED WITH STING ACTIVITY” (IFM Due, Inc., priority 2020, published 2024).

Molecular target: T1, hSTING (Homo sapiens, UniProt Q86WV6, G230A/H232R/R293Q/R71H)
T1 construct: host or cells: THP1-Dual KO-IFNAR2 cells
Assay: STING reporter assay (luciferase) in THP1-Dual KO-IFNAR2 cells activated with 2'3'cGAMP
Assay type: cell-based
Conditions: 15 μM 2'3'cGAMP, 24 h
Description: STING pathway activation by the compounds described herein was measured using THP1-Dual™ cells (KO-IFNAR2).
THP1-Dual™ KO-IFNAR2 Cells (obtained from invivogen) were maintained in RPMI, 10% FCS, 5 ml P/S, 2 mM L-glut, 10 mM Hepes, and 1 mM sodium pyruvate. Compounds were spotted in empty 384 well tissue culture plates (Greiner 781182) by Echo for a final concentration of 0.0017-100 μM. Cells were plated into the TC plates at 40 μL per well, 2×10E6 cells/mL. For activation with STING ligand, 2′3′cGAMP (MW 718.38, obtained from Invivogen), was prepared in Optimem media.
The following solutions were prepared for each 1×384 plate: • Solution A: 2 mL Optimem with one of the following stimuli: • 60 μL of 10 mM 2′3′cGAMP 4 150 μM stock • Solution B: 2 mL Optimem with 60 μL Lipofectamine 2000 4 Incubate 5 min at RT
2 mL of solution A and 2 ml Solution B was mixed and incubated for 20 min at room temperature (RT). 20 μL of transfection solution (A+B) was added on top of the plated cells, with a final 2′3′cGAMP concentration of 15 μM. The plates were then centrifuged immediately at 340 g for 1 minute, after which they were incubated at 37° C., 5% CO2, >98% humidity for 24 h. Luciferase reporter activity was then measured. EC50 values were calculated by using standard methods known in the art.
Luciferase reporter assay: 10 μL of supernatant from the assay was transferred to white 384-plate with flat bottom and squared wells. One pouch of QUANTI-Luc™ Plus was dissolved in 25 mL of water. 100 μL of QLC Stabilizer per 25 mL of QUANTI-Luc™ Plus solution was added. 50 μL of QUANTI-Luc™ Plus/QLC solution per well was then added. Luminescence was measured on a Platereader (e.g., Spectramax I3X (Molecular Devices GF3637001)).
Luciferase reporter activity was then measured. EC50 values were calculated by using standard methods known in the art.

T1 sequence (Q86WV6 whole entry R71H/G230A/H232R/R293Q): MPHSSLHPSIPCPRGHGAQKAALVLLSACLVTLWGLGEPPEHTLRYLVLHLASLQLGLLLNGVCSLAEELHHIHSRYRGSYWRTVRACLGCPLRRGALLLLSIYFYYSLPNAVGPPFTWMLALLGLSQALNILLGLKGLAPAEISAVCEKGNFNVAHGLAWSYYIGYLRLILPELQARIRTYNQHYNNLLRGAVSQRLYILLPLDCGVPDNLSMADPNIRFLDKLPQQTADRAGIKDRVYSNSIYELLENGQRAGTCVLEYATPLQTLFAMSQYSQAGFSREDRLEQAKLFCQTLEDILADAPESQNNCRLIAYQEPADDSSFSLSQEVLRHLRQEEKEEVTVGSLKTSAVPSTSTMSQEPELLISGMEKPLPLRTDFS

Row | EC50 [nM] | SMILES
1 | 1000 to 5000 | COCCn1c(Nc2cc(Cl)c3cc[nH]c3c2)nc2cc(Cl)c(Cl)cc21 [Compound 104, 5,6-dichloro-N-(4-chloro-1H-indol-6-yl)-1-(2-methoxyethyl)-1H-benzo[d]imidazol-2-amine]
2 | 200 to 1000 | Fc1cc(Nc2nc3cc(Cl)c(Cl)cc3[nH]2)cc2[nH]ccc12 [Compound 105, 5,6-dichloro-N-(4-fluoro-1H-indol-6-yl)-1H-benzo[d]imidazol-2-amine]
3 | 1000 to 5000 | Clc1ccc2c(c1)nc(Nc1cc(Cl)c3cc[nH]c3c1)n2Cc1ccccc1 [Compound 106, 1-benzyl-5-chloro-N-(4-chloro-1H-indol-6-yl)-1H-benzo[d]imidazol-2-amine]
4 | 1000 to 5000 | Clc1ccc2c(c1)nc(Nc1cc(Cl)c3cc[nH]c3c1)n2CCc1ccccc1 [Compound 107, 5-chloro-N-(4-chloro-1H-indol-6-yl)-1-phenethyl-1H-benzo[d]imidazol-2-amine]
5 | 200 to 1000 | Clc1cc(Nc2nc3ccc(C4CCC4)cc3[nH]2)cc2[nH]ccc12 [Compound 108, N-(4-chloro-1H-indol-6-yl)-6-cyclobutyl-1H-benzo[d]imidazol-2-amine]
6 | 200 to 1000 | Cn1c(Nc2cc(Cl)c3cc[nH]c3c2)nc2cc(Cl)c(Cl)cc21 [Compound 109, 5,6-dichloro-N-(4-chloro-1H-indol-6-yl)-1-methyl-1H-benzo[d]imidazol-2-amine]
7 | 40 to 200 | Clc1cc2nc(Nc3cc(Cl)c4cc[nH]c4c3)[nH]c2cc1Cl [Compound 110, 5,6-dichloro-N-(4-chloro-1H-indol-6-yl)-1H-benzo[d]imidazol-2-amine]
8 | 200 to 1000 | FC(F)(F)c1cc2[nH]c(Nc3cc(Cl)c4cc[nH]c4c3)nc2cn1 [Compound 111, N-(4-chloro-1H-indol-6-yl)-6-(trifluoromethyl)-1H-imidazo[4,5-c]pyridin-2-amine]
9 | 200 to 1000 | FC(F)(F)c1cnc2nc(Nc3cc(Cl)c4cc[nH]c4c3)[nH]c2c1 [Compound 112, N-(4-chloro-1H-indol-6-yl)-6-(trifluoromethyl)-1H-imidazo[4,5-b]pyridin-2-amine]
10 | 1000 to 5000 | Cn1c(Nc2cc(Cl)c3cc[nH]c3c2)nc2cc(C(F)(F)F)ccc21 [Compound 113, N-(4-chloro-1H-indol-6-yl)-1-methyl-5-(trifluoromethyl)-1H-benzo[d]imidazol-2-amine]
11 | 1000 to 5000 | Cn1c(Nc2ccc3cc[nH]c3c2)nc2ccc(C(F)(F)F)cc21 [Compound 114, N-(1H-indol-6-yl)-1-methyl-6-(trifluoromethyl)-1H-benzo[d]imidazol-2-amine]
12 | 200 to 1000 | Fc1ccc2nc(Nc3cc(Cl)c4cc[nH]c4c3)[nH]c2c1 [Compound 115, N-(4-chloro-1H-indol-6-yl)-6-fluoro-1H-benzo[d]imidazol-2-amine]
13 | 200 to 1000 | N#Cc1ccc2[nH]c(Nc3cc(Cl)c4cc[nH]c4c3)nc2c1 [Compound 116, 2-((4-chloro-1H-indol-6-yl)amino)-1H-benzo[d]imidazole-5-carbonitrile]
14 | 200 to 1000 | Clc1ccc2[nH]c(Nc3cc(Cl)c4cc[nH]c4c3)nc2c1 [Compound 117, 5-chloro-N-(4-chloro-1H-indol-6-yl)-1H-benzo[d]imidazol-2-amine]
15 | 200 to 1000 | Cc1ccc2[nH]c(Nc3cc(Cl)c4cc[nH]c4c3)nc2c1 [Compound 118, N-(4-chloro-1H-indol-6-yl)-5-methyl-1H-benzo[d]imidazol-2-amine]
16 | 200 to 1000 | Clc1cc(Nc2nc3cc(Br)ccc3[nH]2)cc2[nH]ccc12 [Compound 119, 5-bromo-N-(4-chloro-1H-indol-6-yl)-1H-benzo[d]imidazol-2-amine]
17 | 200 to 1000 | FC(F)(F)c1ccc2[nH]c(Nc3cc(Cl)c4cc[nH]c4c3)nc2c1 [Compound 120, N-(4-chloro-1H-indol-6-yl)-5-(trifluoromethyl)-1H-benzo[d]imidazol-2-amine]
18 | 200 to 1000 | Cn1c(Nc2ccc3cc[nH]c3c2)nc2cc(C(F)(F)F)ccc21 [Compound 121, N-(1H-indol-6-yl)-1-methyl-5-(trifluoromethyl)-1H-benzo[d]imidazol-2-amine]

Row | EC50 [nM] | SMILES
19 | 1000 to 5000 | CCn1c(Nc2ccc3cc[nH]c3c2)nc2cc(C(F)(F)F)ccc21 [Compound 122, 1-ethyl-N-(1H-indol-6-yl)-5-(trifluoromethyl)-1H-benzo[d]imidazol-2-amine]
20 | 200 to 1000 | FC(F)(F)c1ccc2[nH]c(Nc3ccc4cc[nH]c4c3)nc2c1 [Compound 123, N-(1H-indol-6-yl)-5-(trifluoromethyl)-1H-benzo[d]imidazol-2-amine]
21 | 1000 to 5000 | CC(C)(C)C1CCC(c2ccc3[nH]c(Nc4cc(Cl)c5cc[nH]c5c4)nc3c2)CC1 (stereo not drawn) [Compound 136, 5-(4-tert-butylcyclohexyl)-N-(4-chloro-1H-indol-6-yl)-1H-1,3-benzodiazol-2-amine]
22 | 1000 to 5000 | CCOC(=O)C1CCC(c2ccc3[nH]c(Nc4cc(Cl)c5cc[nH]c5c4)nc3c2)CC1 (stereo not drawn) [Compound 138, ethyl 4-{2-[(4-chloro-1H-indol-6-yl)amino]-1H-1,3-benzodiazol-5-yl}cyclohexane-1-carboxylate]
23 | 1000 to 5000 | OC1CCC(c2ccc3[nH]c(Nc4cc(Cl)c5cc[nH]c5c4)nc3c2)CC1 (stereo not drawn) [Compound 139, 4-{2-[(4-chloro-1H-indol-6-yl)amino]-1H-1,3-benzodiazol-5-yl}cyclohexan-1-ol]
24 | 1000 to 5000 | CC(C)(C)OC(=O)N1C2C=C(c3ccc4[nH]c(Nc5cc(Cl)c6cc[nH]c6c5)nc4c3)CC1CC2 (stereo not drawn) [Compound 140, tert-butyl 3-{2-[(4-chloro-1H-indol-6-yl)amino]-1H-1,3-benzodiazol-5-yl}-8-azabicyclo[3.2.1]oct-2-ene-8-carboxylate]
25 | 200 to 1000 | Clc1cc(Nc2nc3cc(C4CCCOC4)ccc3[nH]2)cc2[nH]ccc12 (stereo not drawn) [Compound 141, N-(4-chloro-1H-indol-6-yl)-5-(oxan-3-yl)-1H-1,3-benzodiazol-2-amine]
26 | 1000 to 5000 | FC(F)(F)C1CCC(c2ccc3[nH]c(Nc4cc(Cl)c5cc[nH]c5c4)nc3c2)CC1 (stereo not drawn) [Compound 142, N-(4-chloro-1H-indol-6-yl)-5-[4-(trifluoromethyl)cyclohexyl]-1H-1,3-benzodiazol-2-amine]
27 | 5000 to 100000 | CC1(C)CC(c2ccc3[nH]c(Nc4cc(Cl)c5cc[nH]c5c4)nc3c2)CC(C)(C)O1 [Compound 143, N-(4-chloro-1H-indol-6-yl)-5-(2,2,6,6-tetramethyloxan-4-yl)-1H-1,3-benzodiazol-2-amine]
28 | 200 to 1000 | Cn1ccc(-c2ccc3[nH]c(Nc4cc(Cl)c5cc[nH]c5c4)nc3c2)n1 [Compound 144, N-(4-chloro-1H-indol-6-yl)-5-(1-methyl-1H-pyrazol-3-yl)-1H-1,3-benzodiazol-2-amine]
29 | 200 to 1000 | Clc1cc(Nc2nc3cc(-c4ccc(CN5CCOCC5)s4)ccc3[nH]2)cc2[nH]ccc12 [Compound 145, N-(4-chloro-1H-indol-6-yl)-5-{5-[(morpholin-4-yl)methyl]thiophen-2-yl}-1H-1,3-benzodiazol-2-amine]
30 | 1000 to 5000 | Clc1cc(Nc2nc3cc(-c4ccc(N5CCCC5)nc4)ccc3[nH]2)cc2[nH]ccc12 [Compound 146, N-(4-chloro-1H-indol-6-yl)-5-[6-(pyrrolidin-1-yl)pyridin-3-yl]-1H-1,3-benzodiazol-2-amine]
31 | 5000 to 100000 | CN(C)CCn1cc(-c2ccc3[nH]c(Nc4cc(Cl)c5cc[nH]c5c4)nc3c2)cn1 [Compound 147, N-(4-chloro-1H-indol-6-yl)-5-{1-[2-(dimethylamino)ethyl]-1H-pyrazol-4-yl}-1H-1,3-benzodiazol-2-amine]
32 | 200 to 1000 | CC(C)(C)OC(=O)NC1CCC(c2ccc3[nH]c(Nc4cc(Cl)c5cc[nH]c5c4)nc3c2)CC1 (stereo not drawn) [Compound 148, tert-butyl N-(4-{2-[(4-chloro-1H-indol-6-yl)amino]-1H-1,3-benzodiazol-5-yl}cyclohexyl)carbamate]
33 | 200 to 1000 | N#CC1(c2ccc(-c3ccc4[nH]c(Nc5cc(Cl)c6cc[nH]c6c5)nc4c3)cc2)CC1 [Compound 149, 1-(4-{2-[(4-chloro-1H-indol-6-yl)amino]-1H-1,3-benzodiazol-5-yl}phenyl)cyclopropane-1-carbonitrile]
34 | 200 to 1000 | Cn1nccc1-c1ccc2[nH]c(Nc3cc(Cl)c4cc[nH]c4c3)nc2c1 [Compound 150, N-(4-chloro-1H-indol-6-yl)-5-(1-methyl-1H-pyrazol-5-yl)-1H-1,3-benzodiazol-2-amine]
35 | 200 to 1000 | CC(C)(C)OC(=O)N1CCCC(c2ccc3[nH]c(Nc4cc(Cl)c5cc[nH]c5c4)nc3c2)C1 (stereo not drawn) [Compound 151, tert-butyl 3-{2-[(4-chloro-1H-indol-6-yl)amino]-1H-1,3-benzodiazol-5-yl}piperidine-1-carboxylate]
36 | 1000 to 5000 | CC(=O)N1CCC(c2ccc3[nH]c(Nc4cc(Cl)c5cc[nH]c5c4)nc3c2)CC1 [Compound 152, 1-(4-{2-[(4-chloro-1H-indol-6-yl)amino]-1H-1,3-benzodiazol-5-yl}piperidin-1-yl)ethan-1-one]
